Each compound was assayed on HIV-1 laboratory strain, NL4-3 (assay: MT-4 cytoprotection assay). Conditions: Human immunodeficiency virus 1, NL43, MT4, 96 h; MT-4 cells, four days incubation, WST-1 readout; read-out: MT4 EC50.
Format: cell-based
Method: The HTLV-1 transformed T cell line, MT-4, is highly susceptible to HIV-1 infection. Anti-HIV-1 agents were evaluated in this target cell line by protection from the HIV-induced cytopathic effect. In this assay, viability of both HIV-1 and mock-infected cells was assessed in a […] assay that monitors the ability of metabolically-active cells to reduce the tetrazolium salt WST-1. Cytoprotection by antiviral compounds is indicated by the positive readout of increased WST-1 cleavage.
Briefly, exponentially growing MT-4 cells were mock-infected or batch-infected with the HIV-1 laboratory strain, NL4-3, at a multiplicity of infection of 0.0005. Following a two hour infection, the cells were washed to remove unbound virus and plated in the presence of increasing concentrations of compound. After four days incubation, cytoprotection in the infected cells and compound toxicity in mock-infected cells were analyzed using the WST-1 assay.

Row | Structure (SMILES) | EC50
1 | C=C(C)[C@@H]1CC[C@]2(C(=O)NCc3cccc(C(=O)NCCCCC(=O)O)c3)CC[C@]3(C)C(CCC4[C@@]5(C)CC[C@H](O)C(C)(C)C5CC[C@]43C)C12 (stereo partly drawn) [Example 1] | 0.615 µM
2 | C=C(C)[C@@H]1CC[C@]2(C(=O)NCc3cccc(C(=O)NCCCCCCC(=O)O)c3)CC[C@]3(C)C(CCC4[C@@]5(C)CC[C@H](O)C(C)(C)C5CC[C@]43C)C12 (stereo partly drawn) [Example 2] | 0.94 µM
3 | C=C(C)[C@@H]1CC[C@]2(C(=O)NCc3cccc(C(=O)NCCC(=O)O)c3)CC[C@]3(C)C(CCC4[C@@]5(C)CC[C@H](O)C(C)(C)C5CC[C@]43C)C12 (stereo partly drawn) [Example 3] | 10 µM
4 | C=C(C)[C@@H]1CC[C@]2(C(=O)NCc3cccc(C(=O)NCCNC(C)=O)c3)CC[C@]3(C)C(CCC4[C@@]5(C)CC[C@H](O)C(C)(C)C5CC[C@]43C)C12 (stereo partly drawn) [Example 4] | 2.3 µM
5 | C=C(C)[C@@H]1CC[C@]2(C(=O)NCc3cccc(C(=O)NCCc4cccc(C(=O)O)c4)c3)CC[C@]3(C)C(CCC4[C@@]5(C)CC[C@H](O)C(C)(C)C5CC[C@]43C)C12 (stereo partly drawn) [Example 16] | 0.21 µM
6 | C=C(C)[C@@H]1CC[C@]2(C(=O)NCc3ccc(C(=O)NCCC(=O)O)cc3)CC[C@]3(C)C(CCC4[C@@]5(C)CC[C@H](O)C(C)(C)C5CC[C@]43C)C12 (stereo partly drawn) [Example 49] | 10 µM
7 | C=C(C)[C@@H]1CC[C@]2(C(=O)NCc3ccc(C(=O)NCCCCC(=O)O)cc3)CC[C@]3(C)C(CCC4[C@@]5(C)CC[C@H](O)C(C)(C)C5CC[C@]43C)C12 (stereo partly drawn) [Example 50] | 10 µM
8 | C=C(C)[C@@H]1CC[C@]2(C(=O)NCc3ccc(C(=O)NCCCCCCC(=O)O)cc3)CC[C@]3(C)C(CCC4[C@@]5(C)CC[C@H](O)C(C)(C)C5CC[C@]43C)C12 (stereo partly drawn) [Example 51] | 10 µM
9 | C=C(C)[C@@H]1CC[C@]2(C(=O)NCc3ccc(C(=O)NCCNC(C)=O)cc3)CC[C@]3(C)C(CCC4[C@@]5(C)CC[C@H](O)C(C)(C)C5CC[C@]43C)C12 (stereo partly drawn) [Example 52] | 10 µM
10 | C=C(C)[C@@H]1CC[C@]2(C(=O)NCc3ccc(C(=O)NCCNC(=O)OCc4ccccc4)cc3)CC[C@]3(C)C(CCC4[C@@]5(C)CC[C@H](O)C(C)(C)C5CC[C@]43C)C12 (stereo partly drawn) [Example 53] | 10 µM

The compounds below were run on HIV-1NL4-3 (assay: P4-MAGI assay). Conditions: Human immunodeficiency virus 1, 24 h, P4 cells, 24 hour incubation, β-galactosidase expression; read-out: P4-MAGI IC50.
Format: cell-based
From the text: P4 cells were used to test the effects of compounds on virus fusion activity. P4 cells are HIV-1 infectable CD4^+ HeLa cells that bear the bacterial lacZ gene under the control of a minimal HIV-1 LTR. Charneau, et. al., J. Mol. Biol. 241:651-662 (1994). When these cells are infected with HIV-1, β-galactosidase is expressed due to Tat activation of the viral LTR. In this assay, P4 cells were infected with the laboratory adapted strain HIV-1NL4-3 at a multiplicity of infection of 1 in the presence of DEAE-Dextran. Immediately after addition of virus to the cells, increasing concentrations of compound were added to the cells. […] The effect on cell viability (TC50, concentration of compound that inhibits growth by 50%) was determined in mock-infected cells with the WST-1 Cell Proliferation Reagent (Roche Diagnostics).

Row | Structure (SMILES) | IC50
11 | C=C(C)[C@@H]1CC[C@]2(C(=O)NCc3cccc(C(=O)NCCCCC(=O)O)c3)CC[C@]3(C)C(CCC4[C@@]5(C)CC[C@H](O)C(C)(C)C5CC[C@]43C)C12 (stereo partly drawn) [Example 1] | 49.3 nM
12 | C=C(C)[C@@H]1CC[C@]2(C(=O)NCc3cccc(C(=O)NCCCCCCC(=O)O)c3)CC[C@]3(C)C(CCC4[C@@]5(C)CC[C@H](O)C(C)(C)C5CC[C@]43C)C12 (stereo partly drawn) [Example 2] | 46.7 nM
13 | C=C(C)[C@@H]1CC[C@]2(C(=O)NCc3cccc(C(=O)NCCNC(C)=O)c3)CC[C@]3(C)C(CCC4[C@@]5(C)CC[C@H](O)C(C)(C)C5CC[C@]43C)C12 (stereo partly drawn) [Example 4] | 155 nM
14 | C=C(C)[C@@H]1CC[C@]2(C(=O)NCc3cccc(-c4cccc(C(=O)O)c4)c3)CC[C@]3(C)C(CCC4[C@@]5(C)CC[C@H](O)C(C)(C)C5CC[C@]43C)C12 (stereo partly drawn) [Example 128] | 1000 nM
15 | C=C(C)[C@@H]1CC[C@]2(C(=O)NCc3cccc(-c4cccc(C(=O)N[C@@H](CC(C)C)[C@@H](O)CC(=O)O)c4)c3)CC[C@]3(C)C(CCC4[C@@]5(C)CC[C@H](O)C(C)(C)C5CC[C@]43C)C12 (stereo partly drawn) [Example 129] | 3600 nM
16 | C=C(C)[C@@H]1CC[C@]2(C(=O)NCc3cccc(-c4cccc(C(=O)NCC(=O)OCC)c4)c3)CC[C@]3(C)C(CCC4[C@@]5(C)CC[C@H](O)C(C)(C)C5CC[C@]43C)C12 (stereo partly drawn) [Example 131] | 6500 nM
17 | CC(O)(CN1CCCC1)[C@@H]1CC[C@]2(C(=O)NCc3cccc(C(=O)NCCCCC(=O)O)c3)CC[C@]3(C)C(CCC4[C@@]5(C)CC[C@H](O)C(C)(C)C5CC[C@]43C)C12 (stereo partly drawn) [Example 138] | 550 nM
18 | C=C(C)[C@@H]1CC[C@]2(CC(=O)NCc3cccc(C(=O)NCc4cccc(C(=O)O)c4)c3)CC[C@]3(C)C(CCC4[C@@]5(C)CC[C@H](O)C(C)(C)C5CC[C@]43C)C12 (stereo partly drawn) [Example 142] | 3400 nM
19 | C=C(C)[C@@H]1CC[C@]2(C(=O)NCCc3cccc(C(=O)NC(Cc4ccc(O)cc4)C(=O)OC)c3)CC[C@]3(C)C(CCC4[C@@]5(C)CC[C@H](O)C(C)(C)C5CC[C@]43C)C12 (stereo partly drawn) [Example 144] | 204 nM
20 | C=C(C)[C@@H]1CC[C@]2(C(=O)NCCc3cccc(C(=O)NC(Cc4ccc(O)cc4)C(=O)O)c3)CC[C@]3(C)C(CCC4[C@@]5(C)CC[C@H](O)C(C)(C)C5CC[C@]43C)C12 (stereo partly drawn) [Example 145] | 1100 nM
21 | C=C(C)[C@@H]1CC[C@]2(C(=O)NCc3cc(C(=O)NCc4ccc(N(C)C)cc4)ccc3F)CC[C@]3(C)C(CCC4[C@@]5(C)CC[C@H](O)C(C)(C)C5CC[C@]43C)C12 (stereo partly drawn) [Example 180] | 1000 nM
22 | C=C(C)[C@@H]1CC[C@]2(C(=O)NCc3cc(C(=O)NCc4cccc(C(=O)OC)c4F)ccc3F)CC[C@]3(C)C(CCC4[C@@]5(C)CC[C@H](O)C(C)(C)C5CC[C@]43C)C12 (stereo partly drawn) [Example 182] | 600 nM
23 | C=C(C)[C@@H]1CC[C@]2(C(=O)NCCc3cccc(C(=O)NCC4CCCN4C(=O)OC(C)(C)C)c3)CC[C@]3(C)C(CCC4[C@@]5(C)CC[C@H](O)C(C)(C)C5CC[C@]43C)C12 (stereo partly drawn) [Example 203] | 856 nM
24 | C=C(C)[C@@H]1CC[C@]2(C(=O)NCCc3cccc(C(=O)NCC4CCCN4)c3)CC[C@]3(C)C(CCC4[C@@]5(C)CC[C@H](O)C(C)(C)C5CC[C@]43C)C12 (stereo partly drawn) [Example 204] | 1940 nM
25 | C=C(C)[C@@H]1CC[C@]2(C(=O)NCCc3cccc(C(=O)N4CCC(c5ccccc5)CC4)c3)CC[C@]3(C)C(CCC4[C@@]5(C)CC[C@H](O)C(C)(C)C5CC[C@]43C)C12 (stereo partly drawn) [Example 205] | 1000 nM
26 | C=C(C)[C@@H]1CC[C@]2(C(=O)NCc3cccc(COCc4cccc(C(=O)O)c4)c3)CC[C@]3(C)C(CCC4[C@@]5(C)CC[C@H](O)C(C)(C)C5CC[C@]43C)C12 (stereo partly drawn) [Example 206] | 444 nM

Row | Structure (SMILES) | IC50
27 | C=C(C)[C@@H]1CC[C@]2(C(=O)NCCc3cccc(C(=O)NC4CCC(C(=O)OC)CC4)c3)CC[C@]3(C)C(CCC4[C@@]5(C)CC[C@H](O)C(C)(C)C5CC[C@]43C)C12 (stereo partly drawn) [Example 207] | 193 nM
28 | C=C(C)[C@@H]1CC[C@]2(C(=O)NCCc3cccc(C(=O)NC4CCC(C(=O)O)CC4)c3)CC[C@]3(C)C(CCC4[C@@]5(C)CC[C@H](O)C(C)(C)C5CC[C@]43C)C12 (stereo partly drawn) [Example 209] | 356 nM
29 | C=C(C)[C@@H]1CC[C@]2(C(=O)NCCc3cccc(C(=O)NCC4(C(=O)O)CC4)c3)CC[C@]3(C)C(CCC4[C@@]5(C)CC[C@H](O)C(C)(C)C5CC[C@]43C)C12 (stereo partly drawn) [Example 219] | 396 nM
30 | C=C(C)[C@@H]1CC[C@]2(C(=O)NCCc3cccc(OCC(O)c4ccc(C(=O)O)cc4)c3)CC[C@]3(C)C(CCC4[C@@]5(C)CC[C@H](O)C(C)(C)C5CC[C@]43C)C12 (stereo partly drawn) [Example 220] | 259 nM
31 | C=C(C)[C@@H]1CC[C@]2(C(=O)NCCc3cccc(C(=O)NCc4ncccc4C(=O)O)c3)CC[C@]3(C)C(CCC4[C@@]5(C)CC[C@H](O)C(C)(C)C5CC[C@]43C)C12 (stereo partly drawn) [Example 228] | 135 nM
32 | C=C(C)[C@@H]1CC[C@]2(C(=O)NCCc3cccc(C(=O)NCc4ccc(OCCCN5CC(C)NC(C)C5)cc4)c3)CC[C@]3(C)C(CCC4[C@@]5(C)CC[C@H](O)C(C)(C)C5CC[C@]43C)C12 (stereo partly drawn) [Example 233] | 70 nM
33 | C=C(C)[C@@H]1CC[C@]2(C(=O)NCCc3cccc(C(=O)NCc4ccc(OCCCN5CCNCC5)cc4)c3)CC[C@]3(C)C(CCC4[C@@]5(C)CC[C@H](O)C(C)(C)C5CC[C@]43C)C12 (stereo partly drawn) [Example 238] | 678 nM
34 | C=C(C)[C@@H]1CC[C@]2(C(=O)NCCc3cccc(C(=O)NCc4ccc(OCCCn5cnc(C(=O)O)c5)c(C(=O)O)c4)c3)CC[C@]3(C)C(CCC4[C@@]5(C)CC[C@H](O)C(C)(C)C5CC[C@]43C)C12 (stereo partly drawn) [Example 247] | 417 nM
35 | C=C(C)[C@@H]1CC[C@]2(C(=O)NCCc3cccc(S(=O)(=O)NCc4cccc(C(=O)OC)c4)c3)CC[C@]3(C)C(CCC4[C@@]5(C)CC[C@H](O)C(C)(C)C5CC[C@]43C)C12 (stereo partly drawn) [Example 248] | 208 nM
36 | C=C(C)[C@@H]1CC[C@]2(C(=O)NCCc3cccc(S(=O)(=O)NCc4cccc(C(=O)O)c4)c3)CC[C@]3(C)C(CCC4[C@@]5(C)CC[C@H](O)C(C)(C)C5CC[C@]43C)C12 (stereo partly drawn) [Example 249] | 143 nM
37 | C=C(C)[C@@H]1CC[C@]2(C(=O)NCc3cc(C(=O)NCCc4ccc(S(N)(=O)=O)cc4)ccc3F)CC[C@]3(C)C(CCC4[C@@]5(C)CC[C@H](O)C(C)(C)C5CC[C@]43C)C12 (stereo partly drawn) [Example 259] | 175 nM
38 | C=C(C)[C@@H]1CC[C@]2(C(=O)NCCc3cc(C(=O)NCc4ccc(C(=O)OC)cn4)ccc3F)CC[C@]3(C)C(CCC4[C@@]5(C)CC[C@H](O)C(C)(C)C5CC[C@]43C)C12 (stereo partly drawn) [Example 260] | 150 nM
39 | C=C(C)[C@@H]1CC[C@]2(C(=O)NCCc3cc(C(=O)NCc4ccc(C(=O)O)cn4)ccc3F)CC[C@]3(C)C(CCC4[C@@]5(C)CC[C@H](O)C(C)(C)C5CC[C@]43C)C12 (stereo partly drawn) [Example 263] | 198 nM
40 | C=C(C)[C@@H]1CC[C@]2(C(=O)NCc3cccc(-c4noc(Cc5ccc(C#N)cc5)n4)c3)CC[C@]3(C)C(CCC4[C@@]5(C)CC[C@H](O)C(C)(C)C5CC[C@]43C)C12 (stereo partly drawn) [Example 276] | 10000 nM
41 | C=C(C)[C@@H]1CC[C@]2(C(=O)NCc3cccc(-c4noc(Cc5ccc(-c6nnn[nH]6)cc5)n4)c3)CC[C@]3(C)C(CCC4[C@@]5(C)CC[C@H](O)C(C)(C)C5CC[C@]43C)C12 (stereo partly drawn) [Example 277] | 10000 nM

Same assay, conditions: Human immunodeficiency virus 1, text statement, less than about 100 nm; read-out: P4-MAGI assay IC50

Row | Structure (SMILES) | IC50
42 | C=C(C)[C@@H]1CC[C@]2(C(=O)NCc3cccc(C(=O)NCCCCCCC(=O)O)c3)CC[C@]3(C)C(CCC4[C@@]5(C)CC[C@H](O)C(C)(C)C5CC[C@]43C)C12 (stereo partly drawn) [Example 2] | < 100 nM
